Data reported in patent US11000033B2, “Ketone or oxime compound, and herbicide” (NISSAN CHEMICAL CORPORATION, priority 2014, dated 2021).

How the values were obtained:
Type in all cases: in vivo
[1] = system: Chenopodium album; experiment: Test Example 5: herbicidal effect by foliage application, plastic box (symbol O); settings: 320 g/ha, 3 weeks after application
Procedure, shortened: (§1)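 Greenhouse foliar test: seedlings at 14 days, grown 25° C. to 30° C. in sterilized diluvial soil; compound applied as an aqueous dilution of an emulsion; response read 3 weeks after spraying.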

[2] = system: Avena fatua; experiment: Test Example 5: herbicidal effect by foliage application, plastic box (symbol I); settings: 320 g/ha, 3 weeks after application
Procedure, shortened: as §1

[3] = system: Abutilon theophrasti; experiment: Test Example 5: herbicidal effect by foliage application, plastic box (symbol M); settings: 320 g/ha, 3 weeks after application
Procedure, shortened: as §1

[4] = system: directly sowed rice plant; experiment: Test Example 3: effect on crop by foliage application, Wagner pot (symbol b); settings: application herbicide amount 320 g/ha
Procedure, shortened: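 Alluvial soil in a 1/10000-are Wagner pot was flooded to a water depth of 0.1–0.5 cm. Echinochloa crus-galli var. crus-galli, Leptochloa chinensis, Cyperus difformis and rice were sown into it and grown in a greenhouse at 25–30 °C.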

[5] = system: Avena fatua; experiment: Test Example 4: herbicidal effect by soil treatment (symbol I); settings: application herbicide amount 320 g/ha
Procedure, shortened: (§2)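 Seeds were sown in sterilized diluvial soil, covered with about 1.5 cm of soil, and the soil surface was sprayed with a water-diluted emulsion of the compound at a predetermined rate. Plants grew in a greenhouse at 25° C. to 30° C.; effects were scored visually 3 weeks after application.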

[6] = system: wheat; experiment: Test Example 5: effect on crop by foliage application, plastic box (symbol e); settings: 320 g/ha, 3 weeks after application
Procedure, shortened: (§3)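 In a plastic box 7 cm deep filled with sterilized diluvial soil, seeds of crops and weeds such as Digitaria ciliaris, Avena fatua and Amaranthus retroflexus are sown in spots and covered with about 1.5 cm of soil before greenhouse growth at 25–30° C.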

[7] = system: Lolium multiflorum Lam.; experiment: Test Example 5: herbicidal effect by foliage application, plastic box (symbol K); settings: 320 g/ha, 3 weeks after application
Procedure, shortened: as §1

[8] = system: rice; experiment: Test Example 4: effect on crop by soil treatment (symbol b); settings: application herbicide amount 320 g/ha
Procedure, shortened: (§4)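 Sterilized diluvial soil, spot sowing, ~1.5 cm soil cover; greenhouse 25–30° C.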

[9] = system: Veronica persica; experiment: Test Example 5: herbicidal effect by foliage application, plastic box (symbol R); settings: 320 g/ha, 3 weeks after application
Procedure, shortened: as §1

[10] = system: Alopecurus myosuroides; experiment: Test Example 4: herbicidal effect by soil treatment (symbol J); settings: application herbicide amount 320 g/ha
Procedure, shortened: as §2

[11] = system: Monochoria vaginalis; experiment: Test Example 2: herbicidal activity, application during weed generation in submerged conditions (symbol C); settings: Table 23; application herbicide amount 320 g/ha; grade 0-5 by criteria of Test Example 1
Procedure, shortened: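 Submerged alluvial soil (4 cm) sown with mixed seed; greenhouse 25–30° C. 1–2 leaf: diluted emulsion onto water surface, preset dose. Visual score, 3 wk.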

[12] = system: Echinochloa crus-galli var. crus-galli; experiment: Test Example 4: herbicidal effect by soil treatment (symbol H); settings: application herbicide amount 320 g/ha
Procedure, shortened: as §2

[13] = system: Digitaria ciliaris; experiment: Test Example 5: herbicidal effect by foliage application, plastic box (symbol F); settings: 320 g/ha, 3 weeks after application
Procedure, shortened: as §1

[14] = system: beet; experiment: Test Example 4: effect on crop by soil treatment (symbol f); settings: application herbicide amount 320 g/ha
Procedure, shortened: as §4

[15] = system: Apera spica-venti; experiment: Test Example 5: herbicidal effect by foliage application, plastic box (symbol L); settings: 320 g/ha, 3 weeks after application
Procedure, shortened: as §1

[16] = system: Digitaria ciliaris; experiment: Test Example 4: herbicidal effect by soil treatment (symbol F); settings: application herbicide amount 320 g/ha
Procedure, shortened: as §2

[17] = system: rapeseed; experiment: Test Example 5: effect on crop by foliage application, plastic box (symbol g); settings: 320 g/ha, 3 weeks after application
Procedure, shortened: as §3

[18] = system: rapeseed; experiment: Test Example 4: effect on crop by soil treatment (symbol g); settings: application herbicide amount 320 g/ha
Procedure, shortened: as §4

[19] = system: Lolium multiflorum Lam.; experiment: Test Example 4: herbicidal effect by soil treatment (symbol K); settings: application herbicide amount 320 g/ha
Procedure, shortened: as §2

[20] = system: Apera spica-venti; experiment: Test Example 4: herbicidal effect by soil treatment (symbol L); settings: application herbicide amount 320 g/ha
Procedure, shortened: as §2

[21] = system: Amaranthus retroflexus; experiment: Test Example 5: herbicidal effect by foliage application, plastic box (symbol N); settings: 320 g/ha, 3 weeks after application
Procedure, shortened: as §1

[22] = system: Stellaria media; experiment: Test Example 5: herbicidal effect by foliage application, plastic box (symbol P); settings: 320 g/ha, 3 weeks after application
Procedure, shortened: as §1

[23] = system: Galium spurium; experiment: Test Example 5: herbicidal effect by foliage application, plastic box (symbol Q); settings: 320 g/ha, 3 weeks after application
Procedure, shortened: as §1

Structure (SMILES) | O: Chenopodium album, herbicidal effect (criteria of Test Example 1) [1] | I: Avena fatua, herbicidal effect (criteria of Test Example 1) [2] | effect on crop b (directly sowed rice plant), grade 0-5 [4] | I: Avena fatua, herbicidal effect grade [5] | e: wheat, effect on crop (criteria of Test Example 1) [6] | K: Lolium multiflorum Lam., herbicidal effect (criteria of Test Example 1) [7] | b: directly sowed rice plant, effect on crop grade [8] | R: Veronica persica, herbicidal effect (criteria of Test Example 1) [9] | J: Alopecurus myosuroides, herbicidal effect grade [10] | Herbicidal effect grade, C: Monochoria vaginalis [11] | H: Echinochloa crus-galli var. crus-galli, herbicidal effect grade [12] | F: Digitaria ciliaris, herbicidal effect (criteria of Test Example 1) [13] | f: beet, effect on crop grade [14] | L: Apera spica-venti, herbicidal effect (criteria of Test Example 1) [15] | F: Digitaria ciliaris, herbicidal effect grade [16] | g: rapeseed, effect on crop (criteria of Test Example 1) [17] | g: rapeseed, effect on crop grade [18] | K: Lolium multiflorum Lam., herbicidal effect grade [19] | L: Apera spica-venti, herbicidal effect grade [20] | N: Amaranthus retroflexus, herbicidal effect (criteria of Test Example 1) [21] | also measured
CON=C(C)CC1CC(OC(=O)COc2ccccc2)=C(c2c(C)cc(-c3ccc(Cl)cc3)cc2OC)C1=O (stereo not shown) [6-079] | 3 (Herbicidal ratio of 40% or higher and lower than 70%) | 5 (Herbicidal ratio of 90% or more (almost completely withered)) | 5 (Herbicidal ratio of 90% or more (almost completely withered)) | 0 (Herbicidal ratio of 5% or lower (almost no effect)) | 5 (Herbicidal ratio of 90% or more (almost completely withered)) | 5 (Herbicidal ratio of 90% or more (almost completely withered)) | 3 (Herbicidal ratio of 40% or higher and lower than 70%) | 3 (Herbicidal ratio of 40% or higher and lower than 70%) | 3 (Herbicidal ratio of 40% or higher and lower than 70%) | 3 (Herbicidal ratio of 40% or higher and lower than 70%) | 5 (Herbicidal ratio of 90% or more (almost completely withered)) | 5 (Herbicidal ratio of 90% or more (almost completely withered)) | 0 (Herbicidal ratio of 5% or lower (almost no effect)) | 5 (Herbicidal ratio of 90% or more (almost completely withered)) | 5 (Herbicidal ratio of 90% or more (almost completely withered)) | 4 (Herbicidal ratio of 70% or higher and lower than 90%) | 0 (Herbicidal ratio of 5% or lower (almost no effect)) | 5 (Herbicidal ratio of 90% or more (almost completely withered)) | 5 (Herbicidal ratio of 90% or more (almost completely withered)) | 0 (Herbicidal ratio of 5% or lower (almost no effect)) | M: Abutilon theophrasti, herbicidal effect (criteria of Test Example 1) [3]: 4 (Herbicidal ratio of 70% or higher and lower than 90%); P: Stellaria media, herbicidal effect (criteria of Test Example 1) [22]: 3 (Herbicidal ratio of 40% or higher and lower than 70%); Q: Galium spurium, herbicidal effect (criteria of Test Example 1) [23]: 4 (Herbicidal ratio of 70% or higher and lower than 90%)
CON=C(C)CC1CC(O)=C(c2c(C)cc(-c3ccc(F)cc3)cc2C)C1=O (mixture of isomers) [6-058] | 5 (Herbicidal ratio of 90% or more (almost completely withered)) | 5 (Herbicidal ratio of 90% or more (almost completely withered)) | 5 (Herbicidal ratio of 90% or more (almost completely withered)) | 5 (Herbicidal ratio of 90% or more (almost completely withered)) | 5 (Herbicidal ratio of 90% or more (almost completely withered)) | 5 (Herbicidal ratio of 90% or more (almost completely withered)) | 5 (Herbicidal ratio of 90% or more (almost completely withered)) | 5 (Herbicidal ratio of 90% or more (almost completely withered)) | 5 (Herbicidal ratio of 90% or more (almost completely withered)) | 5 (Herbicidal ratio of 90% or more (almost completely withered)) | 5 (Herbicidal ratio of 90% or more (almost completely withered)) | 5 (Herbicidal ratio of 90% or more (almost completely withered)) | 4 (Herbicidal ratio of 70% or higher and lower than 90%) | 5 (Herbicidal ratio of 90% or more (almost completely withered)) | 5 (Herbicidal ratio of 90% or more (almost completely withered)) | 5 (Herbicidal ratio of 90% or more (almost completely withered)) | 5 (Herbicidal ratio of 90% or more (almost completely withered)) | 5 (Herbicidal ratio of 90% or more (almost completely withered)) | 5 (Herbicidal ratio of 90% or more (almost completely withered)) | 5 (Herbicidal ratio of 90% or more (almost completely withered)) | P: Stellaria media, herbicidal effect (criteria of Test Example 1) [22]: 5 (Herbicidal ratio of 90% or more (almost completely withered)); Q: Galium spurium, herbicidal effect (criteria of Test Example 1) [23]: 5 (Herbicidal ratio of 90% or more (almost completely withered))
C#CCON=C(C)CC1CC(O)=C(c2c(C)cc(C)cc2C)C1=O (stereo not shown) [1-019] | – | – | 5 (Herbicidal ratio of 90% or more (almost completely withered)) | – | – | – | – | – | – | 2 (Herbicidal ratio of 20% or higher and lower than 40%) | – | – | – | – | – | – | – | – | – | – | I: Avena fatua, herbicidal effect grade [2]: 5 (Herbicidal ratio of 90% or more (almost completely withered)); M: Abutilon theophrasti, herbicidal effect grade [3]: 4 (Herbicidal ratio of 70% or higher and lower than 90%); I (Avena fatua) herbicidal effect grade [5]: 5 (Herbicidal ratio of 90% or more (almost completely withered)); e: wheat, effect on crop grade [6]: 5 (Herbicidal ratio of 90% or more (almost completely withered)); K: Lolium multiflorum Lam., herbicidal effect grade [7]: 5 (Herbicidal ratio of 90% or more (almost completely withered)); b (directly sowed rice plant) effect on crop grade [8]: 5 (Herbicidal ratio of 90% or more (almost completely withered)); R: Veronica persica, herbicidal effect grade [9]: 4 (Herbicidal ratio of 70% or higher and lower than 90%); J (Alopecurus myosuroides) herbicidal effect grade [10]: 5 (Herbicidal ratio of 90% or more (almost completely withered)); H (Echinochloa crus-galli var. crus-galli) herbicidal effect grade [12]: 5 (Herbicidal ratio of 90% or more (almost completely withered)); F: Digitaria ciliaris, herbicidal effect grade [13]: 5 (Herbicidal ratio of 90% or more (almost completely withered)); f (beet) effect on crop grade [14]: 0 (Herbicidal ratio of 5% or lower (almost no effect)); L: Apera spica-venti, herbicidal effect grade [15]: 5 (Herbicidal ratio of 90% or more (almost completely withered)); F (Digitaria ciliaris) herbicidal effect grade [16]: 5 (Herbicidal ratio of 90% or more (almost completely withered)); g: rapeseed, effect on crop grade [17]: 4 (Herbicidal ratio of 70% or higher and lower than 90%); g (rapeseed) effect on crop grade [18]: 4 (Herbicidal ratio of 70% or higher and lower than 90%); K (Lolium multiflorum Lam.) herbicidal effect grade [19]: 5 (Herbicidal ratio of 90% or more (almost completely withered)); L (Apera spica-venti) herbicidal effect grade [20]: 5 (Herbicidal ratio of 90% or more (almost completely withered)); N: Amaranthus retroflexus, herbicidal effect grade [21]: 2 (Herbicidal ratio of 20% or higher and lower than 40%); P: Stellaria media, herbicidal effect grade [22]: 4 (Herbicidal ratio of 70% or higher and lower than 90%); Q: Galium spurium, herbicidal effect grade [23]: 4 (Herbicidal ratio of 70% or higher and lower than 90%)
